For 11 compounds, EC50 results are on record in BindingDB's records for doi:10.1021/jm980537b (Agouron Pharmaceuticals, 1999).

Experiment [1] can be described thus: Increased percentage of formazan production in drug treated virus infected cells to equal 50% of control drug free uninfected cells on serotype 14.
Experiment [2] is described as follows: The EC50 was calculated as the concentration of drug that increased the percentage of formazan production in drug treated, virus infected cells to 50% of that produced by drug free uninfected cells on serotype 1A.
The nature of experiment [3]: The EC50 was calculated as the concentration of drug that increased the percentage of formazan production in drug treated,virus infected cells to 50% of that produced by drug free uninfected cells on serotype 10.
The nature of experiment [4]: The EC50 was calculated as the concentration of drug that increased the percentage of formazan production in drug treated, virus infected cells to 50% of that produced by drug free uninfected cells on serotype 2.
Experiment [5] can be described thus: The EC50 was calculated as the concentration of drug that increased the percentage of formazan production in drug treated, virus infected cells to 50% of that produced by drug free uninfected cells on serotype 1A. This is another data set of the same source.

SMILES strings stand for the structures.

By EC50 is commonly meant the concentration at which the effect is half-maximal. On to `CCOC(=O)/C=C/[C@H](CCC(N)=O)NC(=O)[C@@H](CC(=O)[C@H](CC(C)C)NC(=O)OCc1ccccc1)Cc1ccccc1` [(E)-(S)-4-((2R,5S)-2-Benzyl-5-benzyloxycarbonylamino-7-methyl-4-oxo-octanoylamino)-6-carbamoyl-hex-2-enoic acid ethyl ester], for which a half-maximal response in experiment [1] (EC50) required 360 nM.

Compound `CCOC(=O)/C=C/[C@H](CCC(N)=O)NC(=O)[C@@H](CC(=O)[C@@H](NC(=O)SCc1ccccc1)C(C)C)Cc1ccccc1` [(E)-(S)-4-((2R,5S)-2-Benzyl-5-benzylsulfanylcarbonylamino-6-methyl-4-oxo-heptanoylamino)-6-carbamoyl-hex-2-enoic acid ethyl ester] showed an EC50 in experiment [1] of 190 nM.

Take `CCOC(=O)/C=C/[C@H](CCC(N)=O)NC(=O)[C@@H](CC(=O)[C@@H](NC(=O)SC1CCCC1)C(C)(C)C)Cc1ccccc1` [(E)-(S)-4-((2R,5S)-2-Benzyl-5-cyclopentylsulfanylcarbonylamino-6,6-dimethyl-4-oxo-heptanoylamino)-6-carbamoyl-hex-2-enoic acid ethyl ester]: the EC50 was 50 nM in experiment [1] and 430 nM in experiment [2].

For `CCOC(=O)/C=C/[C@H](CCC(N)=O)NC(=O)[C@@H](CC(=O)[C@H](CC(C)C)NC(=O)SC1CCCC1)Cc1ccc(C)cc1` [(E)-(S)-6-Carbamoyl-4-[(2R,5S)-5-cyclopentylsulfanylcarbonylamino-7-methyl-2-(4-methyl-benzyl)-4-oxo-octanoylamino]-hex-2-enoic acid ethyl ester], the results for the EC50 in experiment [3], in experiment [4] and in experiment [5] were 1400 nM, 1000 nM and 560 nM, respectively.

As for `CCOC(=O)/C=C/[C@H](CCC(N)=O)NC(=O)[C@@H](CC(=O)[C@@H](NC(=O)SC1CCCC1)C(C)C)Cc1ccc(C(F)(F)F)cc1` [(E)-(S)-6-Carbamoyl-4-[(2R,5S)-5-cyclopentylsulfanylcarbonylamino-6-methyl-4-oxo-2-(4-trifluoromethyl-benzyl)-heptanoylamino]-hex-2-enoic acid ethyl ester], the EC50 in experiment [1] was 50 nM; in experiment [3] it was 160 nM.

Take `CCOC(=O)/C=C/[C@H](CCC(N)=O)NC(=O)[C@@H](CC(=O)[C@@H](NC(=O)SC1CCCC1)C(C)C)Cc1ccc(C)cc1` [(E)-(S)-6-Carbamoyl-4-[(2R,5S)-5-cyclopentylsulfanylcarbonylamino-6-methyl-2-(4-methyl-benzyl)-4-oxo-heptanoylamino]-hex-2-enoic acid ethyl ester]: the EC50 in experiment [1] is 6 nM; in experiment [3], 60 nM; in experiment [4], 130 nM; in experiment [2] it was 160 nM.

Consider `CCOC(=O)/C=C/[C@H](CCC(N)=O)NC(=O)[C@@H](CC(=O)[C@H](CC(C)C)NC(=O)SCc1ccccc1)Cc1ccccc1` [(E)-(S)-4-((2R,5S)-2-Benzyl-5-benzylsulfanylcarbonylamino-7-methyl-4-oxo-octanoylamino)-6-carbamoyl-hex-2-enoic acid ethyl ester], for which, in experiment [1], the midpoint of the response, the EC50, lay at 680 nM.

With `CCOC(=O)/C=C/[C@H](CCC(N)=O)NC(=O)[C@@H](CC(=O)[C@@H](NC(=O)SC1CCCC1)C(C)C)Cc1ccc(F)cc1` [(E)-(S)-6-Carbamoyl-4-[(2R,5S)-5-cyclopentylsulfanylcarbonylamino-2-(4-fluoro-benzyl)-6-methyl-4-oxo-heptanoylamino]-hex-2-enoic acid ethyl ester], the 50% effective concentration (EC50) is 20 nM in experiment [1] and 170 nM in experiment [2].

Consider `CCOC(=O)/C=C/[C@H](CCC(N)=O)NC(=O)[C@@H](CC(=O)[C@H](CC(C)C)NC(=O)SC1CCCC1)Cc1ccc(F)cc1` [(E)-(S)-6-Carbamoyl-4-[(2R,5S)-5-cyclopentylsulfanylcarbonylamino-2-(4-fluoro-benzyl)-7-methyl-4-oxo-octanoylamino]-hex-2-enoic acid ethyl ester], for which the EC50 in experiment [1] is 280 nM; in experiment [3], 1600 nM; in experiment [4] it was 710 nM; in experiment [2], 600 nM.

Consider `CCOC(=O)/C=C/[C@H](CCC(N)=O)NC(=O)[C@@H](CC(=O)[C@@H](NC(=O)SC1CCCC1)C(C)C)Cc1ccccc1` [(E)-(S)-4-((2R,5S)-2-Benzyl-5-cyclopentylsulfanylcarbonylamino-6-methyl-4-oxo-heptanoylamino)-6-carbamoyl-hex-2-enoic acid ethyl ester], for which the EC50 is 20 nM in experiment [1], 35 nM in experiment [3] and 100 nM in experiment [4].

In the case of `CCOC(=O)/C=C/[C@H](CCC(N)=O)NC(=O)[C@@H](CC(=O)[C@H](CC(C)C)NC(=O)SC1CCCC1)Cc1ccccc1` [(E)-(S)-4-((2R,5S)-2-Benzyl-5-cyclopentylsulfanylcarbonylamino-7-methyl-4-oxo-octanoylamino)-6-carbamoyl-hex-2-enoic acid ethyl ester], in experiment [1], the EC50 came out at 190 nM.
